Measured values from EP0776155B1, “DELIVERY OF EXOGENOUS CHEMICAL SUBSTANCES TO PLANT TISSUES” (MONSANTO COMPANY, priority 1994, dated 1996).

Legend:
Assay type in all cases: in vivo
[1] = test system: velvetleaf (Abutilon theophrasti, ABUTH); experiment: Example 12: percent control, abrasion 5, 2, 1 days before glyphosate application; conditions: glyphosate rate (kg a.e./ha)
Experimental: In these Examples illustrative of the invention, velvetleaf (Abutilon theophrasti, ABUTH) seeds were planted in 4-inch (10.1 cm) square pots containing 100% silt loam soil to which 35 grams/cu ft (1.25 kg/m^3) IBDU fertilizer was added, and covered with a mix of 50% Rediearth plus 50% silt loam. The pots were sub-irrigated and the seedlings thinned after emergence to 2 plants per pot.
Abrasion was applied using propelled 200-mesh garnet exactly as described for Examples 1-9. The herbicide used in these Examples was glyphosate as its isopropylamine salt, applied as diluted MON 2139, exactly as described for Examples 1-9.
The time period between abrasion and herbicide application was varied as follows. In Example 11, all abrasion treatments were applied within a short period of time, and herbicide applications were made 2, 4 and 24 hours after abrasion. A set of abraded plants received no herbicide at any time. In addition, herbicide applications were made to unabraded plants at two times: (i) at the time of abrasion, and (ii) 24 hours after the time of abrasion. In Example 12, all herbicide applications were made within a short period of time, and abrasion was applied 5, 2 and 1 days before herbicide application. In addition, herbicide application was made to unabraded plants.
Three replications were performed of every treatment. After treatment, all plants were placed in the greenhouse for the remainder of the experiment, and sub-irrigated. The first replicate was placed in one block in order of the treatment list for ease of viewing and the remaining replicates were randomly placed in two separate blocks.
After an interval of 12-14 days after herbicide application, a visual evaluation was performed to estimate herbicidal efficacy as percent control of treated plants compared to untreated check plants.

[2] = test system: velvetleaf (Abutilon theophrasti, ABUTH); experiment: Example 49: percent control, dry ice (solid carbon dioxide) injury then glyphosate spray
Experimental: In this Example illustrative of the invention, velvetleaf (Abutilon theophrasti, ABUTH) seeds were planted in 4-inch (10.1-cm) square pots filled with 100% silt loam to which 35 g/cu ft (1.25 kg/m^3) IBDU fertilzer were added, and the seeds were covered with 50% Rediearth plus 50% silt loam without fertilizer. […] The same settings were maintained before and after treatment.
Physical injury in this Example was inflicted on the above-ground portions of the plants, two weeks after planting, by means of 15-30 particles of dry ice (carbon dioxide in its solid phase) propelled on to each plant using a 1 oz (28.3 ml) French square bottle having two 3 mm holes in the lid, with vigorous shaking of the bottle 8-12 inches (20-30 cm) above the plant canopy.
After dry ice treatment, plants were sprayed with glyphosate as its isopropylamine salt, in the form of the aqueous concentrate formulation MON 2139 of Monsanto Company. Plants with and without the dry ice treatment were sprayed at the same time using a track sprayer calibrated to deliver 20 gallons/acre (187 liters/ha) water with an 8002E nozzle having a 50-mesh screen, 16 inches (41 cm) above the plant canopy. Each treatment was replicated three times. Similar glyphosate treatments were applied to plants which had not received dry ice. Plants were returned to the greenhouse after spraying. […]

[3] = test system: velvetleaf (Abutilon theophrasti, ABUTH); experiment: Example 50: percent control, KOH chemical corrosive or garnet abrasion then glyphosate spray; conditions: 11 days after glyphosate application
Experimental: In this Example illustrative of the invention, velvetleaf (Abutilon theophrasti, ABUTH) seeds were planted in 4-inch (10.1-cm) square pots filled with a soil mix consisting of 50% Metromix 350 plus 50% silt loam soil to which 100 g/cu ft (3.57 kg/m^3) Osmocote fertilizer were added, and the seeds were covered with the same soil mix without added fertilizer. […] The same settings were maintained before and after treatment.
Physical injury in this Example was inflicted on the above-ground portions of the plants, 17 days after planting, by a propelled chemical corrosive, a 2.5% weight/weight aqueous potassium hydroxide (KOH) solution. This solution was applied using a track sprayer calibrated to deliver 20 gallons/acre (187 liters/ha) with an 8002E nozzle having a 50-mesh screen, 16 inches (41 cm) above the plant canopy. Plants were allowed to dry for 1 hour after KOH treatment. Other plants received injury by abrasion using a hand-held Sears Craftsman™ sandblaster as described in Examples 1-9. A third set of plants received no abrasion or corrosion with KOH.
Plants were then assigned to different herbicide treatments in a factorial experimental design with 3 replications. All plants for each herbicide treatment were sprayed at the same time using a track sprayer calibrated to deliver 20 gallons/acre (187 liters/ha) water with an 8002E nozzle having a 50-mesh screen, 16 inches (41 cm) above the plant canopy. In these Examples the herbicide used was glyphosate as its isopropylamine salt, in the form of the aqueous concentrate formulation MON 2139 of Monsanto Company. Spray solutions were made from stock solutions prepared by dilution of MON 2139 in water.
After an interval of 11 days, a visual evaluation was performed to estimate herbicidal efficacy as percent control of treated plants compared to untreated check plants.

O=C(O)CNCP(=O)(O)O [glyphosate, N-phosphonomethylglycine]
percent control of ABUTH 12 days after glyphosate application ([1]; abraded before 0 days, glyphosate 0.056 kg a.e./ha): 79% | percent control of ABUTH 12 days after glyphosate application ([1]; abraded before 0 days, glyphosate 0.11 kg a.e./ha): 95% | percent control of ABUTH 12 days after glyphosate application ([1]; abraded before 0 days, glyphosate 0.22 kg a.e./ha): 100% | percent control of ABUTH 12 days after glyphosate application ([1]; abraded before 1 day, glyphosate 0.056 kg a.e./ha): 77% | percent control of ABUTH 12 days after glyphosate application ([1]; abraded before 1 day, glyphosate 0.11 kg a.e./ha): 92% | percent control of ABUTH 12 days after glyphosate application ([1]; abraded before 1 day, glyphosate 0.22 kg a.e./ha): 100% | percent control of ABUTH 12 days after glyphosate application ([1]; abraded before 2 days, glyphosate 0.056 kg a.e./ha): 76% | percent control of ABUTH 12 days after glyphosate application ([1]; abraded before 2 days, glyphosate 0.11 kg a.e./ha): 93% | percent control of ABUTH 12 days after glyphosate application ([1]; abraded before 2 days, glyphosate 0.22 kg a.e./ha): 100% | percent control of ABUTH 12 days after glyphosate application ([1]; abraded before 5 days, glyphosate 0.056 kg a.e./ha): 52% | percent control of ABUTH 12 days after glyphosate application ([1]; abraded before 5 days, glyphosate 0.11 kg a.e./ha): 73% | percent control of ABUTH 12 days after glyphosate application ([1]; abraded before 5 days, glyphosate 0.22 kg a.e./ha): 97% | percent control of ABUTH 12 days after glyphosate application ([1]; abraded before 5 days, glyphosate 0.45 kg a.e./ha): 100% | percent control of ABUTH ([2]; glyphosate rate 0.014 kg a.i./ha, not treated with dry ice, 5 DAT): 0% | percent control of ABUTH ([2]; glyphosate rate 0.014 kg a.i./ha, not treated with dry ice, 11 DAT): 0% | percent control of ABUTH ([2]; glyphosate rate 0.014 kg a.i./ha, treated with dry ice, 5 DAT): 0% | percent control of ABUTH ([2]; glyphosate rate 0.014 kg a.i./ha, treated with dry ice, 11 DAT): 0% | percent control of ABUTH ([2]; glyphosate rate 0.028 kg a.i./ha, not treated with dry ice, 5 DAT): 0% | percent control of ABUTH ([2]; glyphosate rate 0.028 kg a.i./ha, not treated with dry ice, 11 DAT): 0% | percent control of ABUTH ([2]; glyphosate rate 0.028 kg a.i./ha, treated with dry ice, 5 DAT): 0% | percent control of ABUTH ([2]; glyphosate rate 0.028 kg a.i./ha, treated with dry ice, 11 DAT): 0% | percent control of ABUTH ([2]; glyphosate rate 0.056 kg a.i./ha, not treated with dry ice, 5 DAT): 0% | percent control of ABUTH ([2]; glyphosate rate 0.056 kg a.i./ha, not treated with dry ice, 11 DAT): 0% | percent control of ABUTH ([2]; glyphosate rate 0.056 kg a.i./ha, treated with dry ice, 5 DAT): 0% | percent control of ABUTH ([2]; glyphosate rate 0.056 kg a.i./ha, treated with dry ice, 11 DAT): 2% | percent control of ABUTH ([2]; glyphosate rate 0.11 kg a.i./ha, not treated with dry ice, 5 DAT): 8% | percent control of ABUTH ([2]; glyphosate rate 0.11 kg a.i./ha, not treated with dry ice, 11 DAT): 0% | percent control of ABUTH ([2]; glyphosate rate 0.11 kg a.i./ha, treated with dry ice, 5 DAT): 22% | percent control of ABUTH ([2]; glyphosate rate 0.11 kg a.i./ha, treated with dry ice, 11 DAT): 8% | percent control of ABUTH ([2]; glyphosate rate 0.21 kg a.i./ha, not treated with dry ice, 5 DAT): 60% | percent control of ABUTH ([2]; glyphosate rate 0.21 kg a.i./ha, not treated with dry ice, 11 DAT): 73% | percent control of ABUTH ([2]; glyphosate rate 0.21 kg a.i./ha, treated with dry ice, 5 DAT): 71% | percent control of ABUTH ([2]; glyphosate rate 0.21 kg a.i./ha, treated with dry ice, 11 DAT): 83% | percent control of ABUTH ([2]; glyphosate rate 0.45 kg a.i./ha, not treated with dry ice, 5 DAT): 80% | percent control of ABUTH ([2]; glyphosate rate 0.45 kg a.i./ha, not treated with dry ice, 11 DAT): 100% | percent control of ABUTH ([2]; glyphosate rate 0.45 kg a.i./ha, treated with dry ice, 5 DAT): 89% | percent control of ABUTH ([2]; glyphosate rate 0.45 kg a.i./ha, treated with dry ice, 11 DAT): 100% | percent control of ABUTH ([2]; glyphosate rate 0.89 kg a.i./ha, not treated with dry ice, 5 DAT): 97% | percent control of ABUTH ([2]; glyphosate rate 0.89 kg a.i./ha, not treated with dry ice, 11 DAT): 100% | percent control of ABUTH ([2]; glyphosate rate 0.89 kg a.i./ha, treated with dry ice, 5 DAT): 93% | percent control of ABUTH ([2]; glyphosate rate 0.89 kg a.i./ha, treated with dry ice, 11 DAT): 100% | percent control of ABUTH ([3]; glyphosate rate 0.0140 kg a.e./ha, injury by abrasion): 30% | percent control of ABUTH ([3]; glyphosate rate 0.0140 kg a.e./ha, injury by corrosion (KOH)): 7% | percent control of ABUTH ([3]; glyphosate rate 0.0140 kg a.e./ha, no physical injury): 0% | percent control of ABUTH ([3]; glyphosate rate 0.028 kg a.e./ha, injury by abrasion): 70% | percent control of ABUTH ([3]; glyphosate rate 0.028 kg a.e./ha, injury by corrosion (KOH)): 13% | percent control of ABUTH ([3]; glyphosate rate 0.028 kg a.e./ha, no physical injury): 0% | percent control of ABUTH ([3]; glyphosate rate 0.056 kg a.e./ha, injury by abrasion): 75% | percent control of ABUTH ([3]; glyphosate rate 0.056 kg a.e./ha, injury by corrosion (KOH)): 48% | percent control of ABUTH ([3]; glyphosate rate 0.056 kg a.e./ha, no physical injury): 3% | percent control of ABUTH ([3]; glyphosate rate 0.11 kg a.e./ha, injury by abrasion): 83% | percent control of ABUTH ([3]; glyphosate rate 0.11 kg a.e./ha, injury by corrosion (KOH)): 73% | percent control of ABUTH ([3]; glyphosate rate 0.11 kg a.e./ha, no physical injury): 0% | percent control of ABUTH ([3]; glyphosate rate 0.22 kg a.e./ha, injury by abrasion): 96% | percent control of ABUTH ([3]; glyphosate rate 0.22 kg a.e./ha, injury by corrosion (KOH)): 85% | percent control of ABUTH ([3]; glyphosate rate 0.22 kg a.e./ha, no physical injury): 81% | percent control of ABUTH ([3]; glyphosate rate 0.45 kg a.e./ha, injury by abrasion): 99% | percent control of ABUTH ([3]; glyphosate rate 0.45 kg a.e./ha, injury by corrosion (KOH)): 91% | percent control of ABUTH ([3]; glyphosate rate 0.45 kg a.e./ha, no physical injury): 87% | percent control of ABUTH ([3]; glyphosate rate 0.89 kg a.e./ha, no physical injury): 100%
